Assay results from patent US7138361B2, “Herbicidal heterocycles” (E. I. du Pont de Nemours and Company, priority 2000, dated 2006).

Assays:
Format in all cases: in vivo
[1] = test system: cocklebur (Xanthium strumarium); assay: Test C preemergence; conditions: for Plant response rating (0 to 100), Cocklebur: visual evaluation after 12 to 14 days
Summary of the method: (§1)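 Test chemicals, formulated in a non-phytotoxic solvent mixture with surfactant, were applied preemergence to planted seeds or postemergence to plants 2 to 18 cm tall (1- to 4-leaf stage). After 12 to 14 days in a greenhouse, injury was visually rated against untreated controls on a 0–100 scale.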

[2] = test system: Surinam grass (Brachiaria decumbens); assay: Test C preemergence; conditions: for Plant response rating (0 to 100), Surinam grass: visual evaluation after 12 to 14 days
Summary of the method: as §1

[3] = test system: goosegrass (Eleusine indica); assay: Test C preemergence; conditions: for Plant response rating (0 to 100), Goosegrass: visual evaluation after 12 to 14 days
Summary of the method: as §1

Sunflower [4] = assay: Test C preemergence
[5] = test system: common ragweed (Ambrosia elatior); assay: Test C preemergence; conditions: for Plant response rating (0 to 100), Ragweed, Common: visual evaluation after 12 to 14 days
Summary of the method: as §1

[6] = test system: velvetleaf (Abutilon theophrasti); assay: Test C preemergence; conditions: for Plant response rating (0 to 100), Velvetleaf: visual evaluation after 12 to 14 days
Summary of the method: as §1

[7] = test system: bermudagrass (Cynodon dactylon); assay: Test C preemergence; conditions: for Plant response rating (0 to 100 where 0 is no effect and 100 is complete control), Bermudagrass: visual evaluation after 12 to 14 days
Summary of the method: as §1

[8] = test system: giant foxtail (Setaria faberii); assay: Test C preemergence; conditions: for Plant response rating (0 to 100), Foxtail, Giant: visual evaluation after 12 to 14 days
Summary of the method: as §1

[9] = test system: crabgrass (Digitaria sanguinalis); assay: Test C preemergence; conditions: for Plant response rating (0 to 100), Crabgrass: visual evaluation after 12 to 14 days
Summary of the method: as §1

[10] = test system: morningglory (Ipomoea hederacea); assay: Test C preemergence; conditions: for Plant response rating (0 to 100), Morningglory: visual evaluation after 12 to 14 days
Summary of the method: as §1

[11] = test system: cocklebur (Xanthium strumarium); assay: Test B preemergence
Summary of the method: (§2)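 Pre: seeded pots sprayed, chemical in non-phytotoxic solvent/surfactant mix. Post: plants 2–18 cm, 1–4 leaf, same formulation. Greenhouse 13–15 d; visual % control vs untreated, 0–100 scale.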

[12] = test system: Surinam grass (Brachiaria decumbens); assay: Test B preemergence
Summary of the method: as §2

[13] = test system: lambsquarters (Chenopodium album); assay: Test B preemergence
Summary of the method: as §2

[14] = test system: velvetleaf (Abutilon theophrasti); assay: Test B preemergence
Summary of the method: as §2

[15] = test system: pigweed (Amaranthus retroflexus); assay: Test B preemergence
Summary of the method: as §2

rice (Oryza saliva) = assay: Test B preemergence
Summary of the method: as §2

[16] = test system: giant foxtail (Setaria faberii); assay: Test B preemergence
Summary of the method: as §2

[17] = test system: crabgrass (Digitaria sanguinalis); assay: Test B preemergence
Summary of the method: as §2

[18] = test system: barnyardgrass (Echinochloa crus-galli); assay: Test B preemergence
Summary of the method: as §2

[19] = test system: morning glory (Ipomoea hederacea); assay: Test B preemergence
Summary of the method: as §2

corn (Zea mays) = assay: Test B preemergence
Summary of the method: as §2

Sunflower [20] = assay: Test C preemergence; conditions: visual evaluation after 12 to 14 days
[21] = Preemergence, Rate 500 g/ha, scale 0 to 100
[22] = preemergence, Rate 125 g/ha, scale 0 to 100, 0 no effect, 100 complete control
[23] = Rate 62 g/ha, scale 0 to 100, 0 no effect, 100 complete control
[24] = Preemergence, Rate 500 g/ha, scale 0 to 100, 0 no effect, 100 complete control
[25] = Rate 125 g/ha, scale 0 to 100, 0 no effect, 100 complete control
[26] = preemergence, Rate 250 g/ha, scale 0 to 100, 0 no effect, 100 complete control
[27] = preemergence, Rate 125 g/ha, scale of 0 to 100 where 0 is no effect and 100 is complete control, 13 to 15 days

O=C1C(n2ccc(C3CCC3)n2)SCN1c1cccc(OC(F)F)c1 (centres unmarked) [Compound 45]
60: Plant response rating, Ragweed, Common [5, 21] | Plant response rating, Rice (rice (Oryza saliva); [24])
90: Plant response rating, Cocklebur [1, 21] | Plant response rating, Goosegrass [3, 23] | Plant response rating, Bermudagrass [7, 22] | Plant response rating, Foxtail, Giant [8, 21] | Plant response rating, Crabgrass [9, 23]
50: Plant response rating, Bermudagrass [7, 23]
80: Plant response rating, Surinam grass [12, 24] | Plant response rating, Barnyardgrass [18, 22]
100: Plant response rating, Goosegrass [3, 21] | Plant response rating (0 to 100), Goosegrass ([3]; preemergence, Rate 250 g/ha) | Plant response rating, Goosegrass [3, 22] | Plant response rating, Bermudagrass [7, 21] | Plant response rating (0 to 100 where 0 is no effect and 100 is complete control), Bermudagrass ([7]; preemergence, Rate 250 g/ha) | Plant response rating, Crabgrass [9, 21] | Plant response rating (0 to 100), Crabgrass ([9]; preemergence, Rate 250 g/ha) | Plant response rating, Crabgrass [9, 22] | Plant response rating, Lambsquarters [13, 24] | Plant response rating, Lambsquarters [13, 22] | Plant response rating, Pigweed [15, 24] | Plant response rating, Foxtail, Giant [16, 24] | Plant response rating, Foxtail, Giant [16, 22] | Plant response rating, Crabgrass [17, 24] | Plant response rating, Barnyardgrass [18, 24]
20: Plant response rating (0 to 100), Cocklebur ([1]; preemergence, Rate 250 g/ha) | Plant response rating, Sunflower (Sunflower [4]; [23]) | Plant response rating (0 to 100), Velvetleaf ([6]; preemergence, Rate 250 g/ha) | Plant response rating (0 to 100), Sunflower (Sunflower [20]; Rate 250 g/ha)
30: Plant response rating (0 to 100), Ragweed, Common ([5]; preemergence, Rate 250 g/ha) | Plant response rating, Velvetleaf [6, 21] | Plant response rating, Foxtail, Giant [8, 23] | Plant response rating, Crabgrass [17, 22]
70: Plant response rating, Surinam grass [2, 21] | Plant response rating, Sunflower (Sunflower [4]; Rate 500 g/ha, scale 0 to 100) | Plant response rating, Surinam grass [12, 22]
40: Plant response rating (0 to 100), Surinam grass ([2]; preemergence, Rate 250 g/ha) | Plant response rating (0 to 100), Foxtail, Giant ([8]; preemergence, Rate 250 g/ha) | Plant response rating, Foxtail, Giant [8, 22]
0: Plant response rating, Cocklebur [1, 22] | Plant response rating, Surinam grass [2, 23] | Plant response rating, Surinam grass [2, 22] | Plant response rating, Ragweed, Common [5, 23] | Plant response rating, Ragweed, Common [5, 22] | Plant response rating, Velvetleaf [6, 23] | Plant response rating, Velvetleaf [6, 22] | Plant response rating, Morningglory [10, 21] | Plant response rating, Morningglory [10, 23] | Plant response rating (0 to 100), Morningglory ([10]; preemergence, Rate 250 g/ha) | Plant response rating, Morningglory [10, 22] | Plant response rating, Cocklebur [11, 24] | Plant response rating, Cocklebur [11, 22] | Plant response rating, Velvetleaf [14, 24] | Plant response rating, Morningglory [19, 24] | Plant response rating, Corn (corn (Zea mays); [24]) | Plant response rating, Corn (corn (Zea mays); [22])

CC(C)Oc1cccc(N2CCC(n3ccc(C(C)C)n3)C2=O)c1 (centres unmarked) [Compound 82]
90: Plant response rating, Goosegrass [3, 23] | Plant response rating, Bermudagrass [7, 25] | Plant response rating, Surinam grass [12, 27]
100: Plant response rating (0 to 100), Surinam grass ([2]; preemergence, Rate 500 g/ha) | Plant response rating, Goosegrass [3, 25] | Plant response rating (0 to 100), Goosegrass ([3]; preemergence, Rate 250 g/ha) | Plant response rating (0 to 100), Goosegrass ([3]; preemergence, Rate 500 g/ha) | Plant response rating (0 to 100), Ragweed, Common ([5]; preemergence, Rate 500 g/ha) | Plant response rating, Bermudagrass [7, 23] | Plant response rating (0 to 100 where 0 is no effect and 100 is complete control), Bermudagrass ([7]; preemergence, Rate 250 g/ha) | Plant response rating (0 to 100 where 0 is no effect and 100 is complete control), Bermudagrass ([7]; preemergence, Rate 500 g/ha) | Plant response rating (0 to 100), Foxtail, Giant ([8]; preemergence, Rate 250 g/ha) | Plant response rating (0 to 100), Foxtail, Giant ([8]; preemergence, Rate 500 g/ha) | Plant response rating, Crabgrass [9, 23] | Plant response rating, Crabgrass [9, 25] | Plant response rating (0 to 100), Crabgrass ([9]; preemergence, Rate 250 g/ha) | Plant response rating (0 to 100), Crabgrass ([9]; preemergence, Rate 500 g/ha) | Plant response rating, Surinam grass [12, 24] | Plant response rating, Lambsquarters [13, 24] | Plant response rating, Lambsquarters [13, 27] | Plant response rating, Pigweed [15, 24] | Plant response rating, Pigweed [15, 27] | Plant response rating, Rice (rice (Oryza saliva); [24]) | Plant response rating, Foxtail, Giant [16, 24] | Plant response rating, Foxtail, Giant [16, 27] | Plant response rating, Crabgrass [17, 24] | Plant response rating, Crabgrass [17, 27] | Plant response rating, Barnyardgrass [18, 24] | Plant response rating, Barnyardgrass [18, 27]
20: Plant response rating (0 to 100), Cocklebur ([1]; preemergence, Rate 250 g/ha) | Plant response rating, Sunflower (Sunflower [4]; [25]) | Plant response rating, Morningglory [10, 23] | Plant response rating, Morningglory [10, 26] | Plant response rating, Corn (corn (Zea mays); [24])
0: Plant response rating, Cocklebur [1, 23] | Plant response rating, Ragweed, Common [5, 25] | Plant response rating, Foxtail, Giant [8, 25] | Plant response rating, Cocklebur [11, 24] | Plant response rating, Cocklebur [11, 27] | Plant response rating, Velvetleaf [14, 24] | Plant response rating, Velvetleaf [14, 27] | Plant response rating, Morningglory [19, 24] | Plant response rating, Morningglory [19, 27] | Plant response rating, Corn (corn (Zea mays); [27])
70: Plant response rating (0 to 100), Surinam grass ([2]; preemergence, Rate 250 g/ha) | Plant response rating, Rice (rice (Oryza saliva); [27])
30: Plant response rating (0 to 100), Velvetleaf ([6]; preemergence, Rate 500 g/ha) | Plant response rating, Foxtail, Giant [8, 23]
80: Plant response rating, Surinam grass [2, 25] | Plant response rating (0 to 100), Morningglory ([10]; preemergence, Rate 500 g/ha) | Plant response rating (0 to 100), Sunflower (Sunflower [20]; Rate 500 g/ha)
40: Plant response rating (0 to 100), Cocklebur ([1]; preemergence, Rate 500 g/ha)
10: Plant response rating, Cocklebur [1, 25] | Plant response rating, Surinam grass [2, 23] | Plant response rating, Velvetleaf [6, 25] | Plant response rating, Velvetleaf [6, 26] | Plant response rating, Morningglory [10, 25]
50: Plant response rating, Ragweed, Common [5, 26]

CC(C)(C)c1ccn(C2CCN(c3cccc(Br)c3)C2=O)n1 (centres unmarked) [Compound 33]
80: Plant response rating, Goosegrass [3, 23] | Plant response rating, Crabgrass [9, 23] | Plant response rating, Foxtail, Giant [16, 24] | Plant response rating, Barnyardgrass [18, 24]
90: Plant response rating (0 to 100), Surinam grass ([2]; preemergence, Rate 250 g/ha) | Plant response rating, Bermudagrass [7, 23] | Plant response rating, Lambsquarters [13, 22]
50: Plant response rating, Foxtail, Giant [8, 23]
30: Plant response rating, Ragweed, Common [5, 21] | Plant response rating, Foxtail, Giant [8, 21] | Plant response rating, Surinam grass [12, 22] | Plant response rating, Barnyardgrass [18, 22] | Plant response rating (0 to 100), Sunflower (Sunflower [20]; Rate 250 g/ha)
20: Plant response rating, Foxtail, Giant [16, 22]
100: Plant response rating, Surinam grass [2, 21] | Plant response rating, Goosegrass [3, 21] | Plant response rating (0 to 100), Goosegrass ([3]; preemergence, Rate 250 g/ha) | Plant response rating, Goosegrass [3, 22] | Plant response rating, Bermudagrass [7, 21] | Plant response rating (0 to 100 where 0 is no effect and 100 is complete control), Bermudagrass ([7]; preemergence, Rate 250 g/ha) | Plant response rating, Bermudagrass [7, 22] | Plant response rating, Foxtail, Giant [8, 22] | Plant response rating, Crabgrass [9, 21] | Plant response rating (0 to 100), Crabgrass ([9]; preemergence, Rate 250 g/ha) | Plant response rating, Crabgrass [9, 22] | Plant response rating, Lambsquarters [13, 24] | Plant response rating, Pigweed [15, 24] | Plant response rating, Crabgrass [17, 24]
60: Plant response rating, Sunflower (Sunflower [4]; Rate 500 g/ha, scale 0 to 100) | Plant response rating, Surinam grass [12, 24]
0: Plant response rating, Cocklebur [1, 21] | Plant response rating, Cocklebur [1, 23] | Plant response rating (0 to 100), Cocklebur ([1]; preemergence, Rate 250 g/ha) | Plant response rating, Cocklebur [1, 22] | Plant response rating, Surinam grass [2, 23] | Plant response rating, Surinam grass [2, 22] | Plant response rating, Sunflower (Sunflower [4]; [23]) | Plant response rating, Ragweed, Common [5, 23] | Plant response rating (0 to 100), Ragweed, Common ([5]; preemergence, Rate 250 g/ha) | Plant response rating, Ragweed, Common [5, 22] | Plant response rating, Velvetleaf [6, 21] | Plant response rating, Velvetleaf [6, 23] | Plant response rating (0 to 100), Velvetleaf ([6]; preemergence, Rate 250 g/ha) | Plant response rating, Velvetleaf [6, 22] | Plant response rating (0 to 100), Foxtail, Giant ([8]; preemergence, Rate 250 g/ha) | Plant response rating, Morningglory [10, 21] | Plant response rating, Morningglory [10, 23] | Plant response rating (0 to 100), Morningglory ([10]; preemergence, Rate 250 g/ha) | Plant response rating, Morningglory [10, 22] | Plant response rating, Cocklebur [11, 22] | Plant response rating, Velvetleaf [14, 24] | Plant response rating, Rice (rice (Oryza saliva); [24]) | Plant response rating, Crabgrass [17, 22] | Plant response rating, Morningglory [19, 24] | Plant response rating, Corn (corn (Zea mays); [24]) | Plant response rating, Corn (corn (Zea mays); [22])
